Data published in ChEMBL document CHEMBL3779847, “Altered activity profile of a tertiary silanol analog of multi-targeting nuclear receptor modulator T0901317” (Bioorg Med Chem Lett, 2016).

Key:
Bile acid receptor [1] = molecular target: T1, Bile acid receptor (Homo sapiens, UniProt Q96RI1); assay: Partial agonist activity at human FXR transfected in HEK293 cells after 24 hrs by luciferase reporter gene assay; format: cell-based
T1 sequence (Q96RI1 whole entry): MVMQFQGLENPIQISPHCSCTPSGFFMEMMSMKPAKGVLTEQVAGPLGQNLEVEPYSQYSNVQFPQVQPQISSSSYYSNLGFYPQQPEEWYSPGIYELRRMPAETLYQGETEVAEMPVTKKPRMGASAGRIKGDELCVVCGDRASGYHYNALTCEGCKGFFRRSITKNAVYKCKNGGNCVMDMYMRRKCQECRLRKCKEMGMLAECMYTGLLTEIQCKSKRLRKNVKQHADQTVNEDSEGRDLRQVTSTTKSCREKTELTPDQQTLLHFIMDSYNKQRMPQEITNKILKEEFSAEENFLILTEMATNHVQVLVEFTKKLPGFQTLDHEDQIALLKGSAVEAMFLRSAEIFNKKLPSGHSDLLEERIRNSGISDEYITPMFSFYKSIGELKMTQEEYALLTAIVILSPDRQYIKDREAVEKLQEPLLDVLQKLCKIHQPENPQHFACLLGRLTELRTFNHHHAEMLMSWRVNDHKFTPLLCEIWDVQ

[2] = molecular target: T2, Nuclear receptor ROR-beta (Homo sapiens, UniProt Q92753); assay: Inverse agonist activity at human RORbeta transfected in HEK293 cells after 24 hrs by beta galactosidase luciferase reporter gene assay; format: cell-based
T2 sequence (Q92753 whole entry): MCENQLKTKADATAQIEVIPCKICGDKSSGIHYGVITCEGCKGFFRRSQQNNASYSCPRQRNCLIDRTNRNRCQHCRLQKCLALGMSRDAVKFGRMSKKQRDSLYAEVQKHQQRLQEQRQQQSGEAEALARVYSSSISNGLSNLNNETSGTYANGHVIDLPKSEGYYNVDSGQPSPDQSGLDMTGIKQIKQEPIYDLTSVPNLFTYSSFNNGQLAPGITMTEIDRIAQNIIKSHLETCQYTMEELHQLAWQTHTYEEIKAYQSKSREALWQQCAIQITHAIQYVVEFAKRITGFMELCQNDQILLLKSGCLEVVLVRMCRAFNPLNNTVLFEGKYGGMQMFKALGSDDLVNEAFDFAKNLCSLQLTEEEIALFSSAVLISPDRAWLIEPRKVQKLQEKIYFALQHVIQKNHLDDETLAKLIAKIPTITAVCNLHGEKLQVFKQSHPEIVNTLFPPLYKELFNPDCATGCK

[3] = Octanol-water partition coefficient, log P of the compound by HPLC method; format: physicochemical
[4] = molecular target: T3, Oxysterols receptor LXR-alpha (Homo sapiens, UniProt Q13133); assay: Agonist activity at human LXRalpha transfected in HEK293 cells after 24 hrs by luciferase reporter gene assay; format: cell-based
T3 sequence (Q13133 whole entry): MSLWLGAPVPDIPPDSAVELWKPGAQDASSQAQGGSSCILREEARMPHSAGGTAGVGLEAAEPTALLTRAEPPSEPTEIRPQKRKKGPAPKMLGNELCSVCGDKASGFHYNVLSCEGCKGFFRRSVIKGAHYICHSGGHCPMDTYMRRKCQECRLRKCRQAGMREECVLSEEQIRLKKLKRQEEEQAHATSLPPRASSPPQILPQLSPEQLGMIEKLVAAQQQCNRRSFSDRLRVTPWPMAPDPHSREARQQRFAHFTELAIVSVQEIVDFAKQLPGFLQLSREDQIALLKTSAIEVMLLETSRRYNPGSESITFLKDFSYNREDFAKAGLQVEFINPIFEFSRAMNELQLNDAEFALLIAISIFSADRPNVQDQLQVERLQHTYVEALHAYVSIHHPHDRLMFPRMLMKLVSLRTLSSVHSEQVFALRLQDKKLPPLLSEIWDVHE

PXR (NR1I2) = molecular target: T4, PXR (NR1I2) (Homo sapiens, UniProt O75469); assay: Agonist activity at human PXR transfected in HEK293 cells after 24 hrs by luciferase reporter gene assay relative to T0901317; format: cell-based; conditions: HEK293 cells transfected with human PXR, read-out: Efficacy
T4 sequence (O75469 whole entry): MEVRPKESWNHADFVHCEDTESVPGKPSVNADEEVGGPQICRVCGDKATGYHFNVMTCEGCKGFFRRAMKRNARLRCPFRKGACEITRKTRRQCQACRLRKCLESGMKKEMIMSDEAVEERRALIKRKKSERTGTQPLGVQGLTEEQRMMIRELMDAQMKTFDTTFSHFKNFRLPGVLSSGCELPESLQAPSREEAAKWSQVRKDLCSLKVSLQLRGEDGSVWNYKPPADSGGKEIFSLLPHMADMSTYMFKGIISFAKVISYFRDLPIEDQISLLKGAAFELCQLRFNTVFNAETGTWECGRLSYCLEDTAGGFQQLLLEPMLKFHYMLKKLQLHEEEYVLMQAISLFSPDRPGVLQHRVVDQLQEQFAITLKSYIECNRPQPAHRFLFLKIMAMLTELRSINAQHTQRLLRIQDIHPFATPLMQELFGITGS

[5] = molecular target: T5, Bile acid receptor (Homo sapiens) (UniProt Q96RI1); assay: Partial agonist activity at human FXR transfected in HEK293 cells after 24 hrs by luciferase reporter gene assay relative to T0901317; format: cell-based
T5 sequence (whole entry): T1 sequence (Q96RI1 whole entry)

[6] = molecular target: T6, Nuclear receptor ROR-gamma (Homo sapiens, UniProt P51449); assay: Inverse agonist activity at human RORgamma transfected in HEK293 cells after 24 hrs by beta galactosidase luciferase reporter gene assay; format: cell-based
T6 sequence (P51449 whole entry): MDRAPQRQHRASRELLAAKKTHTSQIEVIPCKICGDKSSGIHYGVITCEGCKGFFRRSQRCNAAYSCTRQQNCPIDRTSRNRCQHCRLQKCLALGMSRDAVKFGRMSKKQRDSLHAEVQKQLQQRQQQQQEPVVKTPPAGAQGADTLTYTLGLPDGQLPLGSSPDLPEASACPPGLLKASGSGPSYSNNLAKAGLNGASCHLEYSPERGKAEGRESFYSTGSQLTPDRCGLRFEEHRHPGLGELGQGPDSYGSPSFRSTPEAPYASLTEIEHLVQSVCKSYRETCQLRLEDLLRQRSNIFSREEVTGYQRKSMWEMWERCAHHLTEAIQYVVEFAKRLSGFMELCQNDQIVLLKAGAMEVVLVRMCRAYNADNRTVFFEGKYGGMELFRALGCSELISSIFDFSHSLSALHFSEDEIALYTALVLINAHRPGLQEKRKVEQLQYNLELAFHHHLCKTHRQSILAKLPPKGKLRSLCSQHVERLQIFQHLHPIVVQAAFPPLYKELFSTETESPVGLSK

[7] = molecular target: T7, Oxysterols receptor LXR-beta (Homo sapiens, UniProt P55055); assay: Agonist activity at human LXRbeta transfected in HEK293 cells after 24 hrs by luciferase reporter gene assay; format: cell-based
T7 sequence (P55055 whole entry): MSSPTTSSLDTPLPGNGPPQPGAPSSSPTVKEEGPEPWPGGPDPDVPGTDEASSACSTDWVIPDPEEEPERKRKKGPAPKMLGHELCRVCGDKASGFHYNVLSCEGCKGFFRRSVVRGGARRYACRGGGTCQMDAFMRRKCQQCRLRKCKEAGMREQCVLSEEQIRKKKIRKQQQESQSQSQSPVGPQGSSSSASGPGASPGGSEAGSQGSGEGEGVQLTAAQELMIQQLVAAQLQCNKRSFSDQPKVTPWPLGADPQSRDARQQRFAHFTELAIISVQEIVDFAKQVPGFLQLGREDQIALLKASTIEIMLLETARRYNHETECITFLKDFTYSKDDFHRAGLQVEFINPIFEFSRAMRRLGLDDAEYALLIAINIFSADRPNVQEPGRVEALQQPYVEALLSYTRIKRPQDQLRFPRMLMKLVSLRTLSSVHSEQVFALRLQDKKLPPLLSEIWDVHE

[8] = molecular target: T8, Nuclear receptor ROR-alpha (Homo sapiens, UniProt P35398); assay: Inverse agonist activity at human RORalpha transfected in HEK293 cells after 24 hrs by beta galactosidase luciferase reporter gene assay; format: cell-based
T8 sequence (P35398 whole entry): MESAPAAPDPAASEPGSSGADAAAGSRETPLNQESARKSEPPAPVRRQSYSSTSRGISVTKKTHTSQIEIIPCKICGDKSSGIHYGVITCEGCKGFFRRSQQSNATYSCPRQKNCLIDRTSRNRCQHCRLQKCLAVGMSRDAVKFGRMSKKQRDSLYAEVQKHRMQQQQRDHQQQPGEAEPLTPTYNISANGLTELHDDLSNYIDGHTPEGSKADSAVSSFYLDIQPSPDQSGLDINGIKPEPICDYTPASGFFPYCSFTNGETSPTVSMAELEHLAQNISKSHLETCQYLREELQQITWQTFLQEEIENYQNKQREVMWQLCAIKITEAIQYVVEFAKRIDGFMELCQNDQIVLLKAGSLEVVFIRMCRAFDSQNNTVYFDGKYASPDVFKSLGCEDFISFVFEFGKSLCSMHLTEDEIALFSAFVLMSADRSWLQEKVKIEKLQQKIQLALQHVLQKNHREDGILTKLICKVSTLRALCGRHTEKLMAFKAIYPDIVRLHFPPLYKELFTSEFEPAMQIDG

[9] = molecular target: T9, Nuclear receptor subfamily 1 group I member 2 (Homo sapiens, UniProt O75469); assay: Agonist activity at human PXR transfected in HEK293 cells after 24 hrs by luciferase reporter gene assay; format: cell-based
T9 sequence (O75469 whole entry): T4 sequence (O75469 whole entry)

Bile acid receptor [10] = molecular target: T1, Bile acid receptor; assay: Agonist activity at human FXR transfected in HEK293 cells after 24 hrs by luciferase reporter gene assay; format: cell-based

Row | Structure (SMILES) | EC50 (Bile acid receptor [1]) [µM] | IC50 ([2]; read-out: IC50) [µM] | logP [3] | EC50 [4] | Emax at 24 h (PXR (NR1I2)) [%] | Efficacy [5] [%] | IC50 ([6]; read-out: IC50) [µM] | EC50 [7] | IC50 ([8]; read-out: IC50) [µM] | EC50 ([9]; read-out: EC50) [µM] | IC50 ([2]; hek293) | IC50 ([6]; hek293) | EC50 (Bile acid receptor [10]) | IC50 ([8]; hek293) | EC50 ([9]; hek293)
1 | C[Si](C)(O)c1ccc(N(CC(F)(F)F)S(=O)(=O)c2ccccc2)cc1 | 11 | 60 | 4.23 | Not Active | 61 | 23 | 43 | Not Active | 53 | 0.88 |  |  |  |  | 
2 | CC(C)(O)c1ccc(N(CC(F)(F)F)S(=O)(=O)c2ccccc2)cc1 |  |  | 3.7 | Not Active |  |  |  | Not Active |  |  | Not Active | Not Active | Not Active | Not Active | Not Active
3 | CO[C@H]1/C=C/O[C@@]2(C)Oc3c(C)c(O)c4c(O)c(c(/C=N/N5CCN(C)CC5)c(O)c4c3C2=O)NC(=O)/C(C)=C\C=C\[C@H](C)[C@H](O)[C@@H](C)[C@@H](O)[C@@H](C)[C@H](OC(C)=O)[C@@H]1C [RIFAMPIN] |  |  |  |  | 75 |  |  |  |  |  |  |  |  |  | 
4 | O=S(=O)(c1ccccc1)N(CC(F)(F)F)c1ccc(C(O)(C(F)(F)F)C(F)(F)F)cc1 [T091317] |  |  | 5.38 |  |  |  |  |  |  |  | Not Active |  |  | Not Active | 
